Experiments:
Assay type in all cases: cell-based
A431 = test: Cell growth inhibition assay (CellTiter-Glo), A431; details: Homo sapiens, A-431, 72 h, Table 6; A431 cells, three days, CellTiter-Glo; read-out: A431 GI50
Description: (§1) Cells were seeded in a 96-well plate (Corning 3610) with 90 μL of culture medium per well, and plates were incubated at 37° C. overnight. A 1,000× DMSO stock solution of the desired compound was prepared the following day. A compound dilution plate was prepared by diluting the stock solution 1:100 in the corresponding cell culture medium, 10 μL of the diluted compound solution was added to each 96-well plate well containing the seeded cells. […] The content of the wells was mixed by shaking continuously for 10 min, and luminescence was measured using Envision (PerkinElmer). The data were analyzed with GraphPad Prism 9 (see FIG. 50).
(§2) Table 6, Table 7, and Table 8 list the cell growth inhibition results, where Gls0 represents the compound concentration to cause 50% cell growth inhibition in comparison with DMSO.

[1] = molecular target: T1, BaF3_ASV (EGFR_A776inASV) (Homo sapiens, UniProt P00533, DUP767-769); test: EGFR degradation assay (western blot), BaF3_ASV cells; details: BaF3_ASV cells, compounds 24 h, western blot; read-out: BaF3_ASV DC50
T1 construct: expressed in transfected cells; host or cells: Ba/F3 (engineered)
T1 sequence (P00533 with tags, fused parts or gaps DUP767-769): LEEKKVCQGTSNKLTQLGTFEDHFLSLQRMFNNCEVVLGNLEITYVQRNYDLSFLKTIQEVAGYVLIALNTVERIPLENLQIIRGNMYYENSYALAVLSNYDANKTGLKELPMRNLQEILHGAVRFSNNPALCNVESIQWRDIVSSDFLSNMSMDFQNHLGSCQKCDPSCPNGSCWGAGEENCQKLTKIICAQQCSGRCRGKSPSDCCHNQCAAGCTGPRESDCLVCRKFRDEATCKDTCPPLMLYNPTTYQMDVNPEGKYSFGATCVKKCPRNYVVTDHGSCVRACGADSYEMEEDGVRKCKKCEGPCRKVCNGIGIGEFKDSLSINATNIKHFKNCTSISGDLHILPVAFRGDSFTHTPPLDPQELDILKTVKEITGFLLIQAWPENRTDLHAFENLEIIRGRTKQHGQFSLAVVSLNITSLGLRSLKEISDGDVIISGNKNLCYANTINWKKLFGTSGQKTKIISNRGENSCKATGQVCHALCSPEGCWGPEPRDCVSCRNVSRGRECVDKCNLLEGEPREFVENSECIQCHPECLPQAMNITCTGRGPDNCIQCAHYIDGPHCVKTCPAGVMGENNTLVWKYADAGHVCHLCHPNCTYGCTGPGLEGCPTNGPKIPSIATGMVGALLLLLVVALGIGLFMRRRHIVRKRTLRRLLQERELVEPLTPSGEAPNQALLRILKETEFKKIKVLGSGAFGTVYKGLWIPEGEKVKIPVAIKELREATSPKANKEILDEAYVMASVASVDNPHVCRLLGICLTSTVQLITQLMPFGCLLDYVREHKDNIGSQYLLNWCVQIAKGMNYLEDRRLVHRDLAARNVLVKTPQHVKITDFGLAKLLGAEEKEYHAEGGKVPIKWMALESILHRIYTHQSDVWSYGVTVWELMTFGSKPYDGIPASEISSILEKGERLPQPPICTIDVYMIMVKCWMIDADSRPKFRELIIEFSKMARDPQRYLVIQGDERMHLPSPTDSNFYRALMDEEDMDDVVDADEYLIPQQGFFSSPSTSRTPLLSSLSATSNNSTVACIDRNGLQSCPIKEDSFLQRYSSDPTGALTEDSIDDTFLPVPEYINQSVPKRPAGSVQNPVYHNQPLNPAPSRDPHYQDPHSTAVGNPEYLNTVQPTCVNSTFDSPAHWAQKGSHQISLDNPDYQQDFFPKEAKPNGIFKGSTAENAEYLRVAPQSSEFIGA
Description: (§3) A431 (EGFR_WT), NCl-H2073 (EGFR_WT), NCl-H292 (EGFR_WT), BaF3_YVAM (Her2_A775insYVAM), BaF3_SVD (EGFR_D770insSVD), BaF3_ASV (EGFR_A776inASV), or BaF3_DTC (EGFR_Exon19del/T790M/C797S) cells were seeded in a 24-well plate at a density of 4×10^5 cells per well for EGFR WT cells and 8× cells per well for EGFR or Her2 mutant cells, and the plates were incubated overnight. The cells were treated with the desired compounds for 24 h. The culture medium was removed, and 100 μL of RIPA buffer (Beyotime, P0013B) containing 1% Protease Inhibitor Cocktail (Bimake, B14001), 1% Phosphatase Inhibitor Cocktail 2 (Sigma, P5726), and 1% Phosphatase Inhibitor Cocktail 3 (Sigma, P0044) were added to lyse the cells. Then, the cell lysates were transferred to 1.5 mL microcentrifuge tubes and centrifuged at 12,000 rpm and 4° C. for 30 min. The supernatants were transferred into new tubes, and the protein concentration was determined using the BCA protein quantification method. All samples were diluted to the same concentration using RIPA buffer, loading buffer was added, samples were denatured, and 15 μg of protein per lane was loaded onto a SurePAGE 4-20% Bis-Tris gel. Samples were separated via electrophoresis in MOPS running buffer at 180 V for 100 min. Then, proteins were transferred onto PVDF membranes using the MiniBlot™ Electrophoretic Transfer Cell Device (Beyotime, E6050). The membrane was blocked using block buffer (LI-COR 927-60001) to prevent non-specific binding. The membrane was incubated with primary antibodies (1:500 dilution, EGFR-CST4405, 1:2000 dilution, Tubulin-ABclonal #AC021) at 4° C. overnight. The membrane was washed three times with 1× TBST buffer for 15 min each. The membrane was incubated with secondary antibodies IRDye 680RD Goat anti-Rabbit IgG Secondary Antibody (1:2000 dilution, LI-COR 926-68071) and IRDye 800CW Goat anti-Mouse IgG Secondary Antibody (1:2000 dilution, LI-COR 926-32210). Finally, the membrane was washed again with 1× TBST buffer 3 times. Fluorescence was detected using the Odyssey CLx Imaging System, and the data were analyzed with Empiria Studio Software and GraphPad Prism 9. Table 4 and Table 5 list the degradation results, where the degradation potency is represented by DC50, the concentration of compounds to cause the degradation of 50% of the corresponding proteins. FIGS. 45-49 show western blots illustrating the EGFR degradative activity of exemplary Compound of the present disclosure and a comparator Compound A in different cell lines 24 h after administration. The Compound referred herein as Compound A is disclosed in WO 2022/171123 A1 (see, compound 133, page 46; published Aug. 18, 2022). WO 2022/171123 A1 discloses phosphine oxide derived molecules with EGFR degradation activity.

BaF3_ASV = test: Cell growth inhibition assay (CellTiter-Glo), BaF3_ASV; details: 72 h; Table 6; BaF3_ASV cells, three days, CellTiter-Glo; read-out: BaF3_ASV GI50
Description: as §1, §2

BaF3_DTC = test: Cell growth inhibition assay (CellTiter-Glo), BaF3_DTC; details: 72 h; Table 6; BaF3_DTC cells, three days, CellTiter-Glo; read-out: BaF3_DTC GI50
Description: as §1, §2

[2] = system: BaF3_DTC (EGFR_Exon19del/T790M/C797S); test: EGFR degradation assay (western blot), BaF3_DTC cells; details: BaF3_DTC cells (EGFR_Exon19del/T790M/C797S), compounds 24 h, western blot; read-out: BaF3_DTC DC50
Description: as §3

SMILES	GI50 (A431) [nM]	DC50 [1] [nM]	GI50 (BaF3_ASV) [nM]	GI50 (BaF3_DTC) [nM]	DC50 [2] [nM]
CCc1cc(Nc2ncc(Br)c(Nc3ccc4nccnc4c3NS(C)(=O)=O)n2)c(OC)cc1N1CCN(CC2(CN3CCN(c4ccc5c(c4)CN([C@H]4CCC(=O)NC4=O)C5=O)CC3)CC2)CC1 [Compound 44, (S)-N-(6-((5-bromo-2-((4-(4-((1-((4-(2-(2,6-dioxopiperidin-3-yl)-1-oxoisoindolin-5-yl)piperazin-1-yl)methyl)cyclopropyl)methyl)piperazin-1-yl)-5-ethyl-2-methoxyphenyl)amino)pyrimidin-4-yl)amino)quinoxalin-5-yl)methanesulfonamide]	> 1000	> 1000	527	18.4	4.11
CCc1cc(Nc2ncc(Br)c(Nc3ccc4nccnc4c3NS(C)(=O)=O)n2)c(OC)cc1N1CCC2(CCN(CC3CCN(c4ccc5c(c4)CN(C4CCC(=O)NC4=O)C5=O)CC3)CC2)CC1 (centres unmarked) [Compound 37, N-(6-((5-bromo-2-((4-(9-((1-(2-(2,6-dioxopiperidin-3-yl)-1-oxoisoindolin-5-yl)piperidin-4-yl)methyl)-3,9-diazaspiro[5.5]undecan-3-yl)-5-ethyl-2-methoxyphenyl)amino)pyrimidin-4-yl)amino)quinoxalin-5-yl)methanesulfonamide]	382	102	55.7	7.94	8.6
CCc1cc(Nc2ncc(Br)c(Nc3ccc4nccnc4c3NS(C)(=O)=O)n2)c(OC)cc1N1CCC(N2CCN(C3CCC4(CC3)CN(c3ccc5c(c3)CN(C3CCC(=O)NC3=O)C5=O)C4)CC2)CC1 (centres unmarked) [Compound 50, N-(6-((5-bromo-2-((4-(4-(4-(2-(2-(2,6-dioxopiperidin-3-yl)-1-oxoisoindolin-5-yl)-2-azaspiro[3.5]nonan-7-yl)piperazin-1-yl)piperidin-1-yl)-5-ethyl-2-methoxyphenyl)amino)pyrimidin-4-yl)amino)quinoxalin-5-yl)methanesulfonamide]	> 1000	95.2	106	13	38.5
CCc1cc(Nc2ncc(Br)c(Nc3ccc4nccnc4c3NS(C)(=O)=O)n2)c(OC)cc1N1CCC(N2CCN(CC3(CN4CCN(c5ccc6c(c5)CN([C@H]5CCC(=O)NC5=O)C6=O)CC4)CC3)CC2)CC1 [Compound 42, (S)-N-(6-((5-bromo-2-((4-(4-(4-((1-((4-(2-(2,6-dioxopiperidin-3-yl)-1-oxoisoindolin-5-yl)piperazin-1-yl)methyl)cyclopropyl)methyl)piperazin-1-yl)piperidin-1-yl)-5-ethyl-2-methoxyphenyl)amino)pyrimidin-4-yl)amino)quinoxalin-5-yl)methanesulfonamide]	606	> 1000	105	86	> 100
CCc1cc(Nc2ncc(Br)c(Nc3ccc4nccnc4c3NS(C)(=O)=O)n2)c(OC)cc1N1CCC(CN2CCC3(CC2)CCN(c2ccc4c(c2)CN(C2CCC(=O)NC2=O)C4=O)CC3)CC1 (centres unmarked) [Compound 54, N-(6-((5-bromo-2-((4-(4-((9-(2-(2,6-dioxopiperidin-3-yl)-1-oxoisoindolin-5-yl)-3,9-diazaspiro[5.5]undecan-3-yl)methyl)piperidin-1-yl)-5-ethyl-2-methoxyphenyl)amino)pyrimidin-4-yl)amino)quinoxalin-5-yl)methanesulfonamide]	> 1000	33.5	31	4.77	13.3
CCc1cc(Nc2ncc(Br)c(Nc3ccc4nccnc4c3NS(C)(=O)=O)n2)c(OC)cc1N1CCC(N2CC(CN3CCN(c4ccc5c(c4)CN([C@H]4CCC(=O)NC4=O)C5=O)CC3)C2)CC1 [Compound 62, (S)-N-(6-((5-bromo-2-((4-(4-(3-((4-(2-(2,6-dioxopiperidin-3-yl)-1-oxoisoindolin-5-yl)piperazin-1-yl)methyl)azetidin-1-yl)piperidin-1-yl)-5-ethyl-2-methoxyphenyl)amino)pyrimidin-4-yl)amino)quinoxalin-5-yl)methanesulfonamide]	383	75.2	130	19.3	5.18
CCc1cc(Nc2ncc(Br)c(Nc3ccc4nccnc4c3NS(C)(=O)=O)n2)c(OC)cc1N1CCC(N2CCN(CC3CC4(CCN(c5ccc6c(c5)CN(C5CCC(=O)NC5=O)C6=O)CC4)C3)CC2)CC1 (centres unmarked) [Compound 47, N-(6-((5-bromo-2-((4-(4-(4-((7-(2-(2,6-dioxopiperidin-3-yl)-1-oxoisoindolin-5-yl)-7-azaspiro[3.5]nonan-2-yl)methyl)piperazin-1-yl)piperidin-1-yl)-5-ethyl-2-methoxyphenyl)amino)pyrimidin-4-yl)amino)quinoxalin-5-yl)methanesulfonamide]	> 1000	–	47.5	12.1	14.5
CCc1cc(Nc2ncc(Br)c(Nc3ccc4nccnc4c3NS(C)(=O)=O)n2)c(OC)cc1N1CCC(N2CCN(CCN3CCN(c4ccc5c(c4)CN([C@H]4CCC(=O)NC4=O)C5=O)CC3)CC2)CC1 [Compound 39, (S)-N-(6-((5-bromo-2-((4-(4-(4-(2-(4-(2-(2,6-dioxopiperidin-3-yl)-1-oxoisoindolin-5-yl)piperazin-1-yl)ethyl)piperazin-1-yl)piperidin-1-yl)-5-ethyl-2-methoxyphenyl)amino)pyrimidin-4-yl)amino)quinoxalin-5-yl)methanesulfonamide]	441	–	73.4	11.1	3.13
CCc1cc(Nc2ncc(Br)c(Nc3ccc4nccnc4c3NS(C)(=O)=O)n2)c(OC)cc1N1CCC(CN2CC3(CCN(c4ccc5c(c4)CN(C4CCC(=O)NC4=O)C5=O)CC3)C2)CC1 (centres unmarked) [Compound 58, N-(6-((5-bromo-2-((4-(4-((7-(2-(2,6-dioxopiperidin-3-yl)-1-oxoisoindolin-5-yl)-2,7-diazaspiro[3.5]nonan-2-yl)methyl)piperidin-1-yl)-5-ethyl-2-methoxyphenyl)amino)pyrimidin-4-yl)amino)quinoxalin-5-yl)methanesulfonamide]	> 1000	23	49	11.2	10.4
CCc1cc(Nc2ncc(Br)c(Nc3ccc4nccnc4c3NS(C)(=O)=O)n2)c(OC)cc1N1CCC(CN2CCN(c3ccc4c(c3)CN([C@H]3CCC(=O)NC3=O)C4=O)CC2)CC1 [Compound 43, (S)-N-(6-((5-bromo-2-((4-(4-((4-(2-(2,6-dioxopiperidin-3-yl)-1-oxoisoindolin-5-yl)piperazin-1-yl)methyl)piperidin-1-yl)-5-ethyl-2-methoxyphenyl)amino)pyrimidin-4-yl)amino)quinoxalin-5-yl)methanesulfonamide]	> 1000	–	119	15	0.323
